From ChEMBL document CHEMBL1128105, “Synthesis of new azino fused benzimidazolium salts. a new family of DNA intercalating agents. I” (Bioorg Med Chem Lett, 1995)

system: HT-29; assay: In vitro inhibitory activity against colon carcinoma HT-29 cells after 72 hr using in-house program; type: functional, cell-based; conditions: Homo sapiens, HT-29, 72 h

Structure (SMILES) | EC50 [µM]
CCOC(=O)Cn1c2ccccc2[n+]2nc3c(cc12)-c1cccc2cccc-3c12 | 54
Nn1c2ccccc2[n+]2nc3c(cc12)-c1cccc2cccc-3c12 | 37
Cn1c2ccccc2[n+]2nc3c(cc12)-c1cccc2cccc-3c12 | 3.7
COC(=O)c1ccc(Cn2c3ccccc3[n+]3nc4c(cc23)-c2cccc3cccc-4c23)cc1 | 24
NCCNC(=O)Cn1c2ccccc2[n+]2nc3c(cc12)-c1cccc2cccc-3c12 | > 100
c1ccc(Cn2c3ccccc3[n+]3nc4c(c(-c5ccccc5)c23)-c2cccc3cccc-4c23)cc1 | 3.7

Now those with a lower EC50, led by results:

EC50 [µM] | Structure (SMILES)
2.1 | CCOC(=O)c1c2c(cc3n(Cc4ccccc4)c4ccccc4[n+]13)-c1cccc3cccc-2c13
1.8 | CCOC(=O)Cn1c2ccccc2[n+]2c(C(=O)OCC)c3c(cc12)-c1cccc2cccc-3c12
1.5 | c1ccc(Cn2c3ccccc3[n+]3nc4c(cc23)-c2cccc3cccc-4c23)cc1
